# Measured values taken from DBAASP.
# Legend:
# Assay in all cases: ≥ marks a high value that may be exact or a test limit, other limits are often not marked, values filed in µg/mL are converted to µM
# [1] = tested on: Escherichia coli ATCC 25922
# [2] = tested on: Bacillus subtilis ATCC 6633
# Escherichia coli O111 = tested on: Escherichia coli O111
# [3] = tested on: Staphylococcus aureus FDA 209P
# [4] = tested on: Pseudomonas aeruginosa CGMCC 1.860
# [5] = tested on: Enterococcus faecalis CGMCC 1.595
# [6] = tested on: Staphylococcus aureus AS1.72
# Bacillus cereus AS1.126 = tested on: Bacillus cereus AS1.126
# [7] = tested on: Lactococcus lactis AS1.1690
# [8] = tested on: Enterococcus faecium CGMCC 1.2334
# Escherichia coli AS1.349 = tested on: Escherichia coli AS1.349
# [9] = tested on: Candida albicans ATCC 10231
# [10] = tested on: Escherichia coli ATCC 27325
# [11] = tested on: Staphylococcus aureus ATCC 15752
# [12] = tested on: Pseudomonas aeruginosa ATCC 27853
# [13] = tested on: Cryptococcus neoformans ATCC 34881
# [14] = tested on: Saccharomyces cerevisiae ATCC 44774
# [15] = tested on: Salmonella typhimurium KCTC 2370
# [16] = tested on: Bacillus subtilis KCTC 3038
# [17] = tested on: Enterococcus faecalis ATCC 29212
# [18] = tested on: Micrococcus luteus ATCC 10240
# [19] = tested on: Staphylococcus epidermidis
# Staphylococcus aureus 1 = tested on: Staphylococcus aureus 1
# Pseudomonas aeruginosa = tested on: Pseudomonas aeruginosa
# Escherichia coli B = tested on: Escherichia coli B
# [20] = tested on: Micrococcus luteus CCM 144
# [21] = tested on: Candida albicans F7-39/IDE99
# Staphylococcus aureus = tested on: Staphylococcus aureus
# Bacillus subtilis 168 = tested on: Bacillus subtilis 168
# [22] = tested on: Staphylococcus aureus ATCC 43300
# [23] = tested on: Cronobacter sakazakii DPC 6440
# [24] = tested on: Listeria monocytogenes LO28
# [25] = tested on: Pseudomonas syringae pv. tomato DC3000
# [26] = tested on: Xanthomonas vesicatoria DSM 50861
# [27] = tested on: Pectobacterium carotovorum subsp. carotovorum DSM 30168
# [28] = tested on: Staphylococcus aureus 90857
# Alternaria alternata = tested on: Alternaria alternata
# [29] = tested on: Pseudomonas corrugata DSM 7228
# Cladosporium herbarum = tested on: Cladosporium herbarum
# [30] = tested on: Pseudomonas syringae pv. syringae DSM 10604
# [31] = tested on: Clavibacter michiganensis subsp. michiganensis DSM 46294
# Botrytis cinerea = tested on: Botrytis cinerea
structure (smiles),measurement,setting,value
CC[C@H](C)[C@H](NC(=O)[C@@H](NC(=O)CN)C(C)C)C(=O)N[C@H](C(=O)N[C@@H](CC(=O)O)C(=O)N[C@@H](C)C(=O)N[C@@H](CC(C)C)C(=O)N[C@@H](CCCCN)C(=O)NCC(=O)N[C@@H](C)C(=O)N[C@@H](C)C(=O)N[C@@H](CCCCN)C(=O)N[C@H](C(=O)N[C@H](C(=O)N[C@@H](C)C(=O)N[C@@H](C)C(=O)N[C@@H](CCC(=O)O)C(=O)N[C@@H](CC(C)C)C(=O)N[C@@H](CC(C)C)C(=O)N[C@@H](CCCN=C(N)N)C(=O)N[C@@H](CCCCN)C(=O)N[C@@H](C)C(=O)N[C@@H](Cc1cnc[nH]1)C(=O)N[C@H]1CSSC[C@@H](C(=O)O)NC(=O)[C@H](CO)NC(=O)[C@H](CC(N)=O)NC(=O)[C@H]([C@@H](C)O)NC(=O)[C@H](CC(C)C)NC(=O)[C@H](CCCCN)NC1=O)C(C)C)[C@@H](C)O)[C@@H](C)O [GVITDALKGAAKTVAAELLRKAHCKLTNSC],MIC,[1],2.66 µM
same,MIC,[2],20.8 µM
same,MIC,Escherichia coli O111,2.66 µM
same,MIC,[3],5.35 µM
NC(N)=NCCC[C@H](NC(=O)[C@H](Cc1cnc[nH]1)NC(=O)[C@H](Cc1c[nH]c2ccccc12)NC(=O)[C@H](Cc1ccccc1)NC(=O)[C@H](CCCN=C(N)N)NC(=O)[C@@H](N)CCCN=C(N)N)C(=O)O [RRFWHR],MIC,[4],≥ 100 µM
same,MIC,[5],≥ 100 µM
same,MIC,[6],≥ 100 µM
same,MIC,Bacillus cereus AS1.126,≥ 100 µM
same,MIC,[7],≥ 100 µM
same,MIC,[8],≥ 100 µM
same,MIC,Escherichia coli AS1.349,≥ 100 µM
CC(C)[C@H](NC(=O)CNC(=O)[C@H](CCC(N)=O)NC(=O)[C@@H](NC(=O)[C@@H](NC(=O)[C@@H]1CCCN1C(=O)[C@H](CCCN=C(N)N)NC(=O)[C@@H](NC(=O)CNC(=O)[C@@H](N)CCCN=C(N)N)C(C)C)C(C)C)C(C)C)C(=O)N[C@@H](CCCCN)C(=O)N[C@@H](CCC(=O)O)C(=O)N[C@@H](CCCCN)C(=O)N[C@H](C(=O)N[C@@H](CCCN=C(N)N)C(=O)O)C(C)C [RGVRPVVQGVKEKVR],MIC,[9],> 37.5 µM
same,MIC,[10],≥ 37.5 µM
same,MIC,[11],≥ 37.5 µM
same,MIC,[12],> 37.5 µM
same,MIC,[13],≥ 37.5 µM
same,MIC,[14],≥ 37.5 µM
same,MIC,[15],≥ 37.5 µM
same,MIC,[16],≥ 37.5 µM
same,MIC,[17],> 37.5 µM
same,MIC,[18],≥ 37.5 µM
CC[C@H](C)[C@H](NC(=O)CN)C(=O)N[C@@H](CCSC)C(=O)N[C@@H](CO)C(=O)N[C@@H](CO)C(=O)N[C@@H](CC(C)C)C(=O)N[C@@H](CCSC)C(=O)N[C@@H](CCCCN)C(=O)N[C@@H](CCCCN)C(=O)N[C@@H](CC(C)C)C(=O)N[C@@H](C)C(=O)N[C@@H](CCCCN)C(=O)N[C@H](C(=O)N[C@H](C(=O)N[C@@H](C)C(=O)N[C@@H](CCCCN)C(N)=O)[C@@H](C)CC)[C@@H](C)CC [GIMSSLMKKLAKIIAK],MIC,[19],5 µM
same,MIC,Staphylococcus aureus 1,5.2 µM
same,MIC,Pseudomonas aeruginosa,9.3 µM
same,MIC,[12],4.5 µM
same,MIC,Escherichia coli B,3.7 µM
same,MIC,[20],3 µM
same,MIC,[21],11 µM
same,MIC,Staphylococcus aureus,10 µM
same,MIC,Bacillus subtilis 168,7 µM
same,MIC,[22],9 µM
CC[C@H](C)[C@H](NC(=O)[C@@H](N)Cc1c[nH]c2ccccc12)C(=O)N[C@@H](CCC(N)=O)C(=O)N1CCC[C@H]1C(=O)N[C@@H](CCCCN)C(=O)N[C@H](C(=O)N[C@@H](CCCCN)C(=O)N[C@H](C(=O)N[C@@H](C)C(=O)N1CCC[C@H]1C(=O)N[C@@H](Cc1ccc(O)cc1)C(=O)N[C@H](C(=O)N[C@@H](CCCN=C(N)N)C(=O)N[C@@H](Cc1ccc(O)cc1)C(=O)N[C@@H](CC(C)C)C(=O)O)C(C)C)C(C)C)[C@@H](C)O [WIQPKTKVAPYVRYL],MIC,[23],≥ 78.1 µM
same,MIC,[24],19.5 µM
CC(C)C[C@H](NC(=O)[C@H](CC(C)C)NC(=O)[C@H](CCCCN)NC(=O)[C@H](CCCCN)NC(=O)[C@H](CC(C)C)NC(=O)[C@H](CC(C)C)NC(=O)[C@H](CCCCN)NC(=O)[C@H](CCCCN)NC(=O)[C@H](CC(C)C)NC(=O)[C@H](C)NC(=O)[C@H](CCCCN)NC(=O)[C@H](CC(C)C)NC(=O)[C@@H](N)CC(C)C)C(N)=O [LLKALKKLLKKLL],MIC,[25],6.57 µM
same,MIC,[26],3.29 µM
same,MIC,[27],26.3 µM
same,MIC,[28],1.5 µM
same,MIC,Alternaria alternata,≥ 65.7 µM
same,MIC,[29],26.3 µM
same,MIC,Cladosporium herbarum,26.3 µM
same,MIC,[30],6.57 µM
same,MIC,[31],6.57 µM
same,MIC,Botrytis cinerea,≥ 65.7 µM
CC[C@H](C)[C@H](NC(=O)[C@@H](N)Cc1c[nH]c2ccccc12)C(=O)N[C@@H](CCC(N)=O)C(=O)N1CCC[C@H]1C(=O)N[C@@H](CCCCN)C(=O)N[C@H](C(=O)N[C@@H](CCCCN)C(=O)N[C@H](C(=O)N[C@H](C(=O)N1CCC[C@H]1C(=O)N[C@@H](C)C(=O)N[C@H](C(=O)N[C@@H](CCCN=C(N)N)C(=O)N[C@@H](Cc1ccc(O)cc1)C(=O)N[C@@H](CC(C)C)C(=O)O)C(C)C)[C@@H](C)CC)C(C)C)[C@@H](C)O [WIQPKTKVIPAVRYL],MIC,[23],≥ 78.1 µM
same,MIC,[24],≥ 39.1 µM
